Legend:
[1] = tested on: HCT116 cells engineered to over-express human aldo-ketoreductase 1C3 (AKR1C3); assay: Low cell density IC50 (SRB) assay, HCT116 wild type versus AKR1C3 over-expressing cells; format: cell-based; settings: 4 h exposure
Method: (§1) Compounds were subjected to testing, including low-cell density cytotoxicity assay. Cells (500 cells/well) were seeded in 96-well plates and exposed to prodrug for 4 h, washed, then left to grow for a further 5 days. The SRB assay was employed to determine IC50 values (concentration of prodrug required to inhibit proliferation by 50%). Parental HCT116 cells (HCT116 is a cell line derived from human colon cancer) and cells expressing the example nitroreductase gene nfsA from Escherichia coli were evaluated head-to-head. Parental H1299 cells (H1299 is a cell line derived from lung cancer) and cells expressing the example nitroreductase gene nfsA from Escherichia coli were evaluated head-to-head. Parental HCT116 cells and cells expressing human AKR1C3 were evaluated head-to-head. Parental H1299 cells and cells expressing human AKR1C3 were evaluated head-to-head. In a variation of these assays test compounds were assessed for their ability to give hypoxia-selective cell killing. Here wild type HCT116, H460 (H460 is a cell line derived from lung cancer), H1299 and SiHa cells (SiHa is a cell line derived from cervical cancer) were used in addition to HCT116 cells engineered to over express cytochrome P450 reductase (HCT116 POR), a human one-electron nitroreductase. Low-cell density cytotoxicity assays were performed as above under oxic conditions and compared to experiments where cells were shown 4 h of anoxia during the prodrug exposure period, before being washed free of prodrug and then left to grow for a further 5 days under oxic conditions, as above.

[2] = tested on: HCT116 MCLs over-expressing AKR1C3; assay: Multicellular layer (MCL) clonogenic assay, HCT116 wild type versus AKR1C3 over-expressing MCLs; format: cell-based, human
Method: (§2) In parallel, a three dimensional high-cell density multi-cellular layer (MCL) clonogenic assay was performed. 1×10^6 cells of either 100% HCT-116^WT or containing 97% WT with a minor 3% HCT-116^NTR cell population were seeded into a collagen-coated Teflon microporous membrane and left to grow for 3 days. MCLs were then exposed to prodrug for 5 h. After treatment, MCLs were enzyme dissociated, diluted in fresh medium and plated to determine clonogenic survival. To discriminate clonogenic activator (NTR+) from target (NTR−) colonies, cells were plated in non-selective medium (total cells) and medium containing 1 μM puromycin (activator cells). Colonies were grown for 10 days before staining. Colonies containing >50 cells were counted. A variation of this assay was also used to assess for evidence of AKR1C3-dependent cytotoxicity. Here either 100% HCT-116W^T or 100% HCT-116^AKR1C3 cells were seeded to provide MCLs that were then exposed to prodrug.

[3] = tested on: HCT116 cells engineered to over-express E coli NfsA; assay: Low cell density IC50 (SRB) assay, HCT116 wild type versus E coli NfsA over-expressing cells; format: cell-based, human
Method: as §1

[4] = tested on: H1299 cells engineered to over-express E coli NfsA; assay: Low cell density IC50 (SRB) assay, H1299 wild type versus E coli NfsA over-expressing cells; format: cell-based, human
Method: as §1

[5] = tested on: HCT116 MCLs with 3% E coli NfsA-expressing cells; assay: MCL clonogenic bystander assay, HCT116 MCLs seeded with 3% E coli NfsA-expressing cells; format: cell-based, human; settings: 97% wild type HCT116, 3% E coli NfsA-expressing cells
Method: as §2

[6] = tested on: bacterial nitroreductases from the NfsA and NfsB families; assay: GFP SOS assay with nitroreductase over-expression library; format: cell-based, E. coli strain SOS-R4; settings: 55 candidate nitroreductase library, 6 h challenge
Description: The method employed the over-expression of a candidate nitroreductase gene from plasmid pUCX in an SOS reporter strain, as first described in Prosser et al., 2010, Biochem Pharmacol 79, 678-687. In order to enhance the sensitivity of the SOS reporter system, an sfiA::GFP reporter construct was integrated into a CDF-based plasmid (which contains a compatible origin of replication with pUCX) to give the pANODuet reporter plasmid for GFP screening. In addition, nfsA, nfsB, azoR, and nemA genes were deleted to minimise background metabolism, and the tolC gene deleted to minimise efflux of test compounds; this strain was designated SOS-R3. Further improvements were obtained by deleting the mdaB, ycaK, and yieF genes to minimise background metabolism, and by introducing transcriptional terminators to the pANODUET reporter plasmid. This final reporter strain was designated SOS-R4.
Stored glycerols of the 55-membered nitroreductase library in SOS-R4 were thawed and used to inoculate overnight cultures (Lysogeny Broth (LB) amended with 100 μg ml^−1 Ampicillin, 50 μg ml^−1 Spectinomycin, 0.4% glucose) that were incubated at 30° C., 200 rpm for 16 h. The next morning the GFP-SOS assay was commenced by inoculation of 195 μl fresh assay media (LB+100 μg ml^−1 Ampicillin, 50 μg ml^−1 Spectinomycin, 0.2% glucose, 50 μM IPTG) with 15 μl of overnight culture in individual wells of a 96-well plate. Plates were incubated at 30° C., 200 rpm for 2.5 h (pre-challenge period), following which cultures were diluted 1:2 by splitting 50:50 into fresh assay media (+DMSO to 0.5% final concentration) and fresh challenge media (assay media+drug to desired concentration, DMSO to 0.5% final concentration) to final volumes of 80 μl apiece in duplicate on a 384-well plate. Plates were incubated at 30° C., 200 rpm for 6 h (challenge period). GFP expression was determined at excitation 488 nm/emission 509 nm. Turbidity was determined by OD600 and fluorescence data from any replicates not found to be within 15% of the median culture turbidity were discarded.

[7] = tested on: HCT116, H460, H1299 and SiHa wild type cancer cell lines; assay: Oxic versus anoxic low cell density IC50 assay, wild type cancer cell lines; format: cell-based, human; settings: 4 h anoxia during prodrug exposure versus oxic
Method: as §1

[8] = tested on: bacterial nitroreductases from the NfsA and NfsB families; assay: GFP SOS assay with nitroreductase over-expression library; format: cell-based, E. coli strain SOS-R4; settings: single and poly mutated variants of NfsA_Ec, single-mutated variant of NfsA_Bs
[9] = tested on: H1299 cells engineered to over-express human aldo-ketoreductase 1C3 (AKR1C3); assay: Low cell density IC50 (SRB) assay, H1299 wild type versus AKR1C3 over-expressing cells; format: cell-based; settings: 4 h exposure
Method: as §1

[10] = tested on: 15% E coli NfsA-expressing H1299 xenografts; assay: Tumour growth delay, 15% E coli NfsA-expressing H1299 xenografts; format: in vivo, NIH-III mice; settings: for E coli NfsA mediated anti-tumour efficacy (mean tumour volume): 500 umol/kg twice daily (BID), total 1000 umol/kg; for tumour growth delay: mixed HCT116 and H1299 xenografts, 15% E coli NfsA cells, single (or BID) intraperitoneal dose
Method: Animals weighed 18-25 g at the time of tumour inoculation. Tumours were grown subcutaneously on the right flank of mice by inoculating cells grown in tissue culture (1×10^7 cells in 100 uL serum free α-MEM). Tumour sizes were monitored three times weekly using electronic callipers and treatments were initiated once tumour diameter reached ≥7 mm.
Tumour bearing mice were randomised into the appropriate treatment groups and tumour size and body weight recorded. Test compounds were formulated on the day of the experiment and kept in foil-wrapped tubes out of direct fluorescent light. If recruitment of animals occurred over multiple days, the drug stocks were aliquoted into tubes and frozen once at […] until required. Mice were treated with a single (or BID) dose of prodrug by intraperitoneal injection and thereafter tumour size and body weight was monitored every second day. Tumour volume was calculated as π (l×w×w)/6, where l is the major axis and w is the perpendicular minor axis. Animals were culled when they had reached the appropriate survival endpoint or when body weight loss exceeded 20% of the pre-treatment value.

[11] = tested on: wild type SiHa tumour xenografts; assay: Excision assay with and without radiation, wild type SiHa tumour xenografts; format: in vivo, NIH-III nude mice
Method: Tumours were grown subcutaneously in the flank of NIH-III mice by inoculating cells grown in tissue culture. Tumours were monitored using electronic calipers. When tumours reached treatment size, mice were randomized to treatment groups (five to seven per group). Compounds were given as single (or BID) intraperitoneal doses alone or 5 min after whole body irradiation (^60Co source). Eighteen hours after treatment, tumours were excised, weighed, minced, dissociated enzymatically, and plated to determine clonogenicity. Clonogens/gram of tissue were calculated relative to controls and effects of treatment were tested for significance (ANOVA with Dunnett's).

| SMILES | AKR1C3-mediated cytotoxicity (IC50 wild type versus AKR1C3) [1] | AKR1C3-dependent clonogenic cell kill in MCLs [2] | E coli NfsA-mediated cytotoxicity (IC50 wild type versus NfsA) [3] | E coli NfsA-mediated cytotoxicity (IC50 wild type versus NfsA) [4] | bystander cell killing in MCLs [5] | metabolism by bacterial nitroreductases (SOS response) [6] | hypoxia-dependent cytotoxicity [7] | activity with mutated nitroreductase variants [8] | AKR1C3-mediated cytotoxicity (IC50 wild type versus AKR1C3) [9] | E coli NfsA mediated anti-tumour efficacy (mean tumour volume) [10] | tumour growth delay [10] | cell killing in combination with radiation versus radiation alone ([11]; HCT116 POR and wild type SiHa xenografts, 10 or 15Gy, single (or BID) intraperitoneal dose) | hypoxic cell kill in vivo (log cell kill) ([11]; with or without 10Gy radiation, 22 at 422, 300 and 11 at 1330, 23 at 1000 umol/kg) |
| --- | --- | --- | --- | --- | --- | --- | --- | --- | --- | --- | --- | --- | --- |
| CCS(=O)(=O)c1cc([N+](=O)[O-])c(C(=O)N(C)CCO)cc1N(CCBr)CCBr [compound 18, 5-(bis(2-bromoethyl)amino)-4-(ethylsulfonyl)-N-(2-hydroxyethyl)-N-methyl-2-nitrobenzamide] | less susceptible to AKR1C3-mediated cytotoxicity than PR-104A | do not cause AKR1C3-dependant cytotoxicity | produce E coli NfsA-mediated cytotoxicity | produce E coli NfsA-mediated cytotoxicity | display evidence of metabolism by the 3% E coli NfsA-expressing cells with bystander cell killing of the 97% non-expressing neighbour cells | substrates for multiple wild type and mutant bacterial nitroreductases from the NfsA and NfsB families | increased cytotoxicity in cells under hypoxia | demonstrated | – | – | – | – | – |
| CCN1CCN(C(=O)c2cc(N(CCBr)CCBr)c(S(C)(=O)=O)cc2[N+](=O)[O-])CC1 [compound 23, (5-(bis(2-bromoethyl)amino)-4-(methylsulfonyl)-2-nitrophenyl)(4-ethylpiperazin-1-yl)methanone] | less susceptible to AKR1C3-mediated cytotoxicity than PR-104A | do not cause AKR1C3-dependant cytotoxicity | produce E coli NfsA-mediated cytotoxicity | produce E coli NfsA-mediated cytotoxicity | display evidence of metabolism by the 3% E coli NfsA-expressing cells with bystander cell killing of the 97% non-expressing neighbour cells | substrates for multiple wild type and mutant bacterial nitroreductases from the NfsA and NfsB families | – | demonstrated | less susceptible to AKR1C3-mediated cytotoxicity than PR-104A | display significant E coli NfsA mediated anti-tumour efficacy | profound tumour growth delay | increased cell killing above what could be achieved with radiation alone | significant hypoxic cell kill in vivo |
| CCN1CCN(C(=O)c2cc(N(CCBr)CCBr)c(S(=O)(=O)CC)cc2[N+](=O)[O-])CC1 [compound 26, (5-(bis(2-bromoethyl)amino)-4-(ethylsulfonyl)-2-nitrophenyl)(4-ethylpiperazin-1-yl)methanone] | less susceptible to AKR1C3-mediated cytotoxicity than PR-104A | do not cause AKR1C3-dependant cytotoxicity | produce E coli NfsA-mediated cytotoxicity | produce E coli NfsA-mediated cytotoxicity | display evidence of metabolism by the 3% E coli NfsA-expressing cells with bystander cell killing of the 97% non-expressing neighbour cells | substrates for multiple wild type and mutant bacterial nitroreductases from the NfsA and NfsB families | – | demonstrated | less susceptible to AKR1C3-mediated cytotoxicity than PR-104A | display significant E coli NfsA mediated anti-tumour efficacy | profound tumour growth delay | – | – |
| CCS(=O)(=O)c1cc([N+](=O)[O-])c(C(=O)N2CCN(C(C)C)CC2)cc1N(CCBr)CCBr [compound 27, (5-(bis(2-bromoethyl)amino)-4-(ethylsulfonyl)-2-nitrophenyl)(4-isopropylpiperazin-1-yl)methanone] | less susceptible to AKR1C3-mediated cytotoxicity than PR-104A | do not cause AKR1C3-dependant cytotoxicity | produce E coli NfsA-mediated cytotoxicity | produce E coli NfsA-mediated cytotoxicity | display evidence of metabolism by the 3% E coli NfsA-expressing cells with bystander cell killing of the 97% non-expressing neighbour cells | substrates for multiple wild type and mutant bacterial nitroreductases from the NfsA and NfsB families | – | demonstrated | less susceptible to AKR1C3-mediated cytotoxicity than PR-104A | – | – | – | – |
| CS(=O)(=O)c1cc([N+](=O)[O-])c(C(=O)NCCO)cc1N(CCBr)CCBr [compound 301, 5-(bis(2-bromoethyl)amino)-N-(2-hydroxyethyl)-4-(methylsulfonyl)-2-nitrobenzamide] | – | – | – | – | – | – | increased cytotoxicity in cells under hypoxia | – | – | – | – | – | – |
